Read-outs that look alike come from different tables or passages of the source.
Key:
[1] = system: ZIKV infection; conditions: read-out: IC50 against ZIKV infection (reported); cited from earlier work
[2] = system: ZIKV human strain PRVABC59; assay: Plaque assay, inhibition of ZIKV infection (strain PRVABC59); type: cell-based; conditions: Zika virus
Method: (§1) After removal of the unbound compounds by centrifugation (after addition of 3% PEG-6000), ZIKV was incubated with Vero E6 cells in 24-well plates at 37°C for 1 h. The cells were then washed with PBS, overlaid with DMEM containing 1% carboxymethyl cellulose and 2% FBS, and cultured at 37°C for 4–5 days, followed by being stained with 0.5% crystal violet. […] Plaques in each well were calculated, and IC50 of compounds for each compound was calculated using the CalcuSyn computer program.

[3] = system: ZIKV human strain PAN2015; assay: Plaque assay, inhibition of ZIKV infection (strain PAN2015); type: cell-based; conditions: Zika virus, Vero C1008, Vero E6 cells
Method: as §1

[4] = system: ZIKV human strain R103451; assay: Plaque assay, inhibition of ZIKV infection (strain R103451); type: cell-based; conditions: Zika virus
Method: as §1

[5] = system: ZIKV human strain FLR; assay: Plaque assay, inhibition of ZIKV infection (strain FLR); type: cell-based; conditions: Zika virus
Method: as §1

[6] = system: ZIKV human strain R116265; assay: Plaque assay, inhibition of ZIKV infection (strain R116265); type: cell-based; conditions: Zika virus, Vero C1008, Vero E6 cells
Method: as §1

[7] = system: ZIKV rhesus macaque strain MR 766; assay: Plaque assay, inhibition of ZIKV infection (strain MR 766); type: cell-based; conditions: Zika virus
Method: as §1

[8] = system: ZIKV human strain PAN2016 (2016/Panama); assay: Plaque assay, inhibition of ZIKV infection (strain PAN2016); conditions: for SI (CC50/IC50): CC50 Vero E6 / IC50 ZIKV PAN2016
Method: as §1

[9] = system: ZIKV human strain IbH 30656; assay: Plaque assay, inhibition of ZIKV infection (strain IbH 30656); type: cell-based; conditions: Zika virus
Method: as §1

[10] = system: ZIKV mosquito strain MEX 2-81; assay: Plaque assay, inhibition of ZIKV infection (strain MEX 2-81); type: cell-based; conditions: Zika virus
Method: as §1

[11] = Cytotoxicity, Cell Counting Kit-8, Vero E6 cells; type: cell-based; conditions: African green monkey
Method: (§2) Briefly, compounds at 2-fold serial dilutions were added to the respective cells (2.0×10^4/well) pre-seeded in 96-well plates. The cells were cultured at 37°C in the presence of 5% CO2 for 3 days, […] incubated with CCK8 solution, followed by measurement of absorbance at 450 nm (A450 value), using a microplate reader (Infinite F200PRO, Tecan, Morrisville, NC, USA). CC50 of compounds was calculated using the CalcuSyn program.

[12] = system: Vero E6 cells; assay: Cytotoxicity, Cell Counting Kit-8, Vero E6 cells; type: cell-based; conditions: African green monkey, 3 days
Method: as §2

[13] = system: ZIKV human strain PLCal_ZV; assay: Plaque assay, inhibition of ZIKV infection (strain PLCal_ZV); type: cell-based; conditions: Zika virus
Method: as §1

[14] = system: 8 human ZIKV strains (PAN2016, R116265, PAN2015, FLR, R103451, PRVABC59, PLCal_ZV, IbH 30656); assay: microbe, parasite or virus in culture; type: cell-based; conditions: Zika virus, read-out: Average IC50 (human strains)
Method: as §1

[15] = system: ZIKV human strain R103451; assay: Lethal ZIKV challenge in adult Ifnar1−/− mice, survival and weight; type: in vivo; conditions: ZIKV R103451 200 PFU
Method: (§3) Briefly, 7–8-week-old male mice were used, and two separate experiments were performed. […] These mice were i.p. infected with ZIKV (human strain R103451, 200 PFU/mouse) and observed daily for weight changes and survival until 21 dpi. […] Five days later, these mice were sacrificed, and their tissues, including the heart, testis, eye, kidney, and brain, were collected for detection of viral titers by plaque assay, or apoptosis by immunofluorescence staining. Mice losing 20% of initial weight with severe symptoms, including hind limb weakness and paralysis, or 25% of initial weight, were humanely euthanized with an overdose isoflurane in a Bell Jar, followed by cervical dislocation.

[16] = system: ZIKV human strain PAN2016; assay: ZIKV challenge in adult Ifnar1−/− mice, tissue viral titers and immunofluorescence; type: in vivo; conditions: 20 mg/kg i.p.; ZIKV PAN2016 200 PFU; 5 dpi; compared to DMSO-treated mice
Method: as §3
Plaque assay was used to detect viral titers in ZIKV-infected tissues. Briefly, tissues were homogenized with cold culture medium (DMEM + 2% FBS) and then centrifuged (2000 g at 4°C for 10 min). Supernatants were serially diluted to infect Vero E6 cells in 24-well plates. ZIKV titers in tissues were measured from ~40 mg of samples; thus, the detection limit was about 25 PFU/g of tissues.
Immunofluorescence staining was carried out to detect ZIKV and caspase-3 signals in ZIKV-infected mouse tissues. Briefly, tissues were fixed in 4% formaldehyde, embedded in paraffin, and sectioned. The tissue sections were deparaffinized, fixed, and permed using the FIX and PERM Cell Permeabilization Kit (Thermo Fisher Scientific, Waltham, MA, USA). After blocking with 5% BSA, the tissue slides were incubated at 37°C 2 h with ZIKV EDIII-specific human mAb (ZV-67, 1:100, Absolute Antibody, Boston, MA, USA), or rabbit anti-active caspase-3 antibody (1:100, Abcam). The slides were washed with PBS and incubated for 30 min with anti-human FITC antibody (1:100, for ZIKV), or anti-rabbit Alexa Fluor 647 antibody (1:100, for caspase-3). The slides were then counterstained for nuclei, using DAPI (300 nM, Thermo Fisher Scientific, Waltham, MA, USA) for 5 min, and mounted in VectaMount Permanent Mounting Medium (Vector Laboratories, CA, USA). The slides were analyzed using a confocal microscope (Zeiss LSM 880) and ZEN software, and fluorescent signals were quantified by ImageJ software.

[17] = system: DENV-1-V1792; assay: Plaque assay, inhibition of DENV-1 infection in LLC-MK2 cells; type: cell-based; conditions: Dengue virus, DENV1
[18] = in vitro; type: cell-based; conditions: rhesus monkey
Method: as §2

[19] = system: DENV-4-PR-06-65-740; assay: Plaque assay, inhibition of DENV-4 infection in LLC-MK2 cells; type: cell-based; conditions: Dengue virus, DENV4
[20] = system: DENV-2 human strain V594; assay: DENV-2 challenge in Ifnar1−/− mice, flow cytometry titers; type: in vivo; conditions: C6/36 cells, flow cytometry, 3 dpi, 20 mg/kg i.p., representative image
Method: Three days after infection, sera and tissues, including the brain, kidney, and heart, were collected and assessed for DENV infection using a flow cytometry assay, as described below. Tissues were freshly homogenized with cold culture medium (EMEM + 2% FBS) and centrifuged at 4°C and 2000 g for 10 min. Serially diluted tissue supernatants and sera were added to C6/36 cells, as described below. DENV titers in tissues or sera were assessed from ~20 mg of tissue samples, or 25 μl of sera, and used for subsequent flow cytometry analysis.
Flow cytometry assay was carried out to analyze DENV-2 titers in the supernatants of homogenized tissues and sera from DENV-2-infected mice collected above. Briefly, homogenized tissue supernatants or sera were added to C6/36 cells (5×10^5 cells/well) pre-seeded in 24-well plates which the culture medium was removed, and the cells were incubated for 1 h (28°C, 5% CO2). After incubation, the cells were washed with PBS, incubated with EMEM containing 2% FBS, and then cultured for 3 days as described above. After further removal of medium, the cells were digested, washed with PBS, and resuspended in FIX/PERM solution (Tonbo Biosciences, San Diego, CA, USA), followed by incubation at 4°C for 1 h in the dark. The cells were then sequentially incubated with mouse anti-flavivirus mAb 4G2 (2 μg/ml) at 37°C for 1 h and FITC-labeled anti-mouse IgG (0.5 mg/ml, BioLegend, San Diego, CA, USA) at 37°C for 30 min, followed by analysis using a FACScan flow cytometer and Summit software. Viral titers (infectious units/ml or infectious units/g) were calculated using the formula ((% of infected cells)×(total number of cells)×(dilution factor)/(amount of inoculum added to cells)).

[21] = system: DENV-2-V594; assay: Plaque assay, inhibition of DENV-2 infection in LLC-MK2 cells; type: cell-based; conditions: Dengue virus, DENV2
[22] = system: DENV-3-V1043; assay: Plaque assay, inhibition of DENV-3 infection in LLC-MK2 cells; type: cell-based; conditions: Dengue virus, DENV3
[23] = Vero C1008, plaque assay, Vero E6 cells, human strain, read-out: IC50 PRVABC59
[24] = Vero C1008, plaque assay, Vero E6 cells, human strain, read-out: IC50 R103451
[25] = Vero C1008, plaque assay, Vero E6 cells, human strain, read-out: IC50 FLR
[26] = Vero C1008, plaque assay, Vero E6 cells, rhesus strain, read-out: IC50 MR 766
[27] = Zika virus, Vero C1008, in Homo sapiens, read-out: IC50 against infection of ZIKV PAN2016, plaque assay, Vero E6 cells
[28] = read-out: IC50 against infection of ZIKV PAN2016, plaque assay, Vero E6 cells
[29] = Vero C1008, plaque assay, Vero E6 cells, human strain, read-out: IC50 IbH 30656
[30] = Vero C1008, plaque assay, Vero E6 cells, mosquito strain, read-out: IC50 MEX 2-81
[31] = Vero C1008, plaque assay, Vero E6 cells, human strain, read-out: IC50 PLCal_ZV

## CC(=O)Oc1ccccc1C(=O)Nc1ncc([N+](=O)[O-])s1 [Nitazoxanide]
[1]
  IC50: 15.9 µM

## Cc1cc2c(C(C)C)c(O)c(O)c3c2c(c1-c1c(C)cc2c(C(C)C)c(O)c(O)c4c2c1OC4N)OC3N (stereo not drawn) [ST069299]
[2]; [23]
  IC50: 3.3 µM
[3]
  IC50: 2.3 µM
[4]; [24]
  IC50: 3.9 µM
[5]; [25]
  IC50: 3.3 µM
[6]
  IC50: 2.6 µM
[7]; [26]
  IC50: 4.9 µM
[8]; [27]
  IC50: 2.3 µM
[8]; [28]
  IC50: 2.34 ± 0.06 µM
[9]; [29]
  IC50: 2.5 µM
[10]; [30]
  IC50: 3.9 µM
[11]; CC50 Vero E6
  CC50 at 3 days: 25.9 µM
[12]
  CC50: 25.9 ± 2.7 µM
[13]; [31]
  IC50: 4 µM
[14]
  IC50: 3 µM

## Cc1cc2c(c(O)c1-c1c(C)cc3c(c1O)C(C=C1C(=O)NC(=O)NC1=O)C(=O)C(O)=C3C(C)C)C(C=C1C(=O)NC(=O)NC1=O)C(=O)C(O)=C2C(C)C (stereo not drawn) [ST004335]
[8]
  SI (CC50/IC50): 2.7
[8]; [27]
  IC50: 27.4 ± 2.5 µM
[11]; Vero E6 cells, CCK8, 3 days, read-out: CC50 Vero E6
  CC50 at 3 days: 73.9 ± 1.68 µM

## Cc1cc2c(C(C)C)c(O)c(O)c(C=O)c2c(O)c1-c1c(C)cc2c(C(C)C)c(O)c(O)c(C=O)c2c1O [Gossypol, reference compound]
[2]; Vero C1008, read-out: IC50 PRVABC59
  IC50: 4.6 µM
[15]; 20 mg/kg i.p. 12 h before and 6, 24, 48 h post-infection, observed 21 days
  Mice protected from death (survival): no mice treated with gossypol survived at 6 dpi
[15]; 20 mg/kg i.p., ST087010 figure during 6–12 dpi
  Weight loss: increased weight loss
[4]; Vero C1008, read-out: IC50 R103451
  IC50: 3.1 µM
[5]; Vero C1008, read-out: IC50 FLR
  IC50: 0.7 µM
[16]
  Viral titers in the heart, kidney, and brain: significantly higher
[7]; Vero C1008, read-out: IC50 MR 766
  IC50: 4.1 µM
[17]
  IC50: 2.06 ± 0.13 µM
[8]; [27]
  IC50: 3.8 µM
[8]; [28]
  IC50: 3.78 ± 0.3 µM
[9]; Vero C1008, read-out: IC50 IbH 30656
  IC50: 3.4 µM
[18]
  CC50 at 3 days: 19.1 ± 1.09 µM
[10]; Vero C1008, read-out: IC50 MEX 2-81
  IC50: 2.9 µM
[11]; CC50 Vero E6
  CC50 at 3 days: 14.5 µM
[12]
  CC50: 14.49 ± 0.07 µM
[13]; Vero C1008, read-out: IC50 PLCal_ZV
  IC50: 2.9 µM
[19]
  IC50: 2.83 ± 0.07 µM
[20]
  DENV-2 in brain, percentage of infected cells: 3.6%
  DENV-2 in heart, percentage of infected cells: 3.8%
  DENV-2 in kidney, percentage of infected cells: 4.1%
  DENV-2 in sera, percentage of infected cells: 50.9%
[21]
  IC50: 1.91 ± 0.01 µM
[22]
  IC50: 3.42 ± 0.11 µM
[14]
  IC50: 3.4 µM

## Cc1cc2nc[nH]c2c(/N=C/c2c(O)c(O)c(C(C)C)c3cc(C)c(-c4c(C)cc5c(C(C)C)c(O)c(O)c(/C=N/c6c(C)c(C)cc7nc[nH]c67)c5c4O)c(O)c23)c1C [ST092971]
[2]; [23]
  IC50: 9.1 µM
[3]
  IC50: 5 µM
[4]; [24]
  IC50: 6.6 µM
[5]; [25]
  IC50: 6.9 µM
[6]
  IC50: 8 µM
[7]; [26]
  IC50: 5.2 µM
[8]
  SI (CC50/IC50): 14.48
[8]; [27]
  IC50: 5 µM
[8]; [28]
  IC50: 4.98 ± 0.01 µM
[9]; [29]
  IC50: 5.2 µM
[10]; [30]
  IC50: 13.5 µM
[11]; CC50 Vero E6
  CC50 at 3 days: 72.1 µM
[12]
  CC50: 72.1 ± 1.91 µM
[13]; [31]
  IC50: 6.7 µM
[14]
  IC50: 6.6 µM

Reference: paper PMC9202104 (BMC Biology, 2022)
